Reference: paper PMC9097188, “Design, Synthesis, and Molecular Modeling Studies of a Novel Benzimidazole as an Aromatase Inhibitor” (ACS Omega, 2022)

Key:
[1] = system: C6 (rat glioma cell line); test: MTT cytotoxicity assay, C6; format: cell-based; conditions: mean of four independent studies, read-out: IC50 against C6
Method: (§1) In this study, all compounds were tested for antiproliferative activity using an MTT assay with doxorubicin as a control against MCF-7 (human breast adenocarcinoma cell line), A549 (lung carcinoma cell line), HepG2 (human liver carcinoma cell line), HeLa (cervical cell line), and C6 (rat glioma cell line) cell lines. Table 1 summarizes the results of four independent studies as the mean IC50 value (half-maximum inhibitory concentration).
(§2) MTT tests were used to screen the anticancer activities of compounds 5a–i. The MTT assays were carried out as stated previously.[16],[17] The anticancer activity of the final compounds was tested on […]: A549 (lung carcinoma cell line), HeLa (cervical cell line), MCF-7 (human breast adenocarcinoma cell line), HepG2 (human liver carcinoma cell line), C6 (rat glioma cell line), and NIH3T3 […] (mouse embryo fibroblast cell line). In the MTT experiments, doxorubicin and Hoechst 33342 were employed as reference drugs.

[2] = system: HepG2 (human liver carcinoma cell line); test: MTT cytotoxicity assay, HepG2; format: cell-based; conditions: mean of four independent studies, read-out: IC50 against HepG2
Method: as §1, §2

[3] = system: HeLa (cervical cell line); test: MTT cytotoxicity assay, HeLa; format: cell-based; conditions: Homo sapiens, mean of four independent studies, read-out: IC50 against HeLa
Method: as §1, §2

[4] = system: A549 (lung carcinoma cell line); test: MTT cytotoxicity assay, A549; format: cell-based; conditions: Homo sapiens, mean of four independent studies, read-out: IC50 against A549
Method: as §1, §2

[5] = system: MCF-7 (human breast adenocarcinoma cell line); test: MTT cytotoxicity assay, MCF-7; format: cell-based; conditions: Homo sapiens, MCF7, MTT assay, mean of four independent studies; read-out: IC50 against MCF-7
Method: as §1, §2

aromatase = conditions: 3D-QSAR data set, IC50 converted to pIC50; SI reference list; cited from earlier work

Compound: COc1cccc2c1C(=O)c1c(O)c3c(c(O)c1C2=O)C[C@@](O)(C(=O)CO)C[C@@H]3O[C@H]1C[C@H](N)[C@H](O)[C@H](C)O1 [Dox., doxorubicin]
- IC50 [1]: 28.7 ± 1.23 µM

Compound: COc1ccc(-c2nc3ccc(-c4nnc(SCC(=O)N5CCN(Cc6ccc(Cl)cc6)CC5)o4)cc3[nH]2)cc1 [5e, 2-((5-(2-(4-Methoxyphenyl)-1H-benzo[d]imidazol-6-yl)-1,3,4-oxadiazol-2-yl)thio)-1-(4-(4-chlorobenzyl)piperazin-1-yl)ethan-1-one]
- IC50 [2]: ≥ 100 µM
- IC50 [3]: ≥ 100 µM
- melting point: 138.2 to 140.1 °C
- IC50 [1]: ≥ 100 µM
- IC50 [4]: ≥ 100 µM
- IC50 [5]: 45.6 ± 2.11 µM

Compound: COc1ccc(-c2nc3ccc(-c4nnc(SCC(=O)N5CCN(Cc6ccc(F)cc6)CC5)o4)cc3[nH]2)cc1 [5f, 2-((5-(2-(4-Methoxyphenyl)-1H-benzo[d]imidazol-6-yl)-1,3,4-oxadiazol-2-yl)thio)-1-(4-(4-fluorobenzyl)piperazin-1-yl)ethan-1-one]
- IC50 [2]: ≥ 100 µM
- IC50 [3]: ≥ 100 µM
- melting point: 133.4 to 135.8 °C
- IC50 [1]: ≥ 100 µM
- IC50 [4]: ≥ 100 µM
- IC50 [5]: ≥ 100 µM

Compound: O=C1Nc2ccccc2C1(c1[nH]c2ccccc2c1CCNS(=O)(=O)c1ccc(Cl)cc1)c1[nH]c2ccccc2c1CCNS(=O)(=O)c1ccc(Cl)cc1 [compound 60]
- Experimental pIC50 (aromatase): 5.081

Compound: O=[N+]([O-])c1ccc(C(c2[nH]c3ccccc3c2CCNS(=O)(=O)c2ccc(C(F)(F)F)cc2)c2[nH]c3ccccc3c2CCNS(=O)(=O)c2ccc(C(F)(F)F)cc2)cc1 [compound 34]
- Experimental pIC50 (aromatase): 5.398

Compound: Cc1ccc(S(=O)(=O)Nc2ccc3[nH]ccc3c2)cc1 [compound 63]
- Experimental pIC50 (aromatase): 6.796

Compound: CCn1cc([C@H](c2ccc(Cl)cc2Cl)n2cncn2)c2cc(Br)ccc21 [120R]
- Experimental pIC50 (aromatase): 6.206

Compound: COc1ccc(-c2nc3ccc(-c4nnc(SCC(=O)N5CCN(Cc6ccccc6)CC5)o4)cc3[nH]2)cc1 [5d, 2-((5-(2-(4-Methoxyphenyl)-1H-benzo[d]imidazol-6-yl)-1,3,4-oxadiazol-2-yl)thio)-1-(4-benzylpiperazin-1-yl)ethan-1-one]
- IC50 [2]: ≥ 100 µM
- IC50 [3]: ≥ 100 µM
- melting point: 172.6 to 174.8 °C
- IC50 [1]: 88.5 ± 3.41 µM
- IC50 [4]: ≥ 100 µM
- IC50 [5]: ≥ 100 µM

Compound: O[C@](c1cccnc1)(c1cc2ccccc2o1)c1ccc(Cl)cc1Cl [87S]
- Experimental pIC50 (aromatase): 5.658

Compound: O=S(=O)(NCCc1c(C(c2ccc(F)cc2)c2[nH]c3ccccc3c2CCNS(=O)(=O)c2ccc(C(F)(F)F)cc2)[nH]c2ccccc12)c1ccc(C(F)(F)F)cc1 [compound 42]
- Experimental pIC50 (aromatase): 5.357

Compound: Fc1ccc(C2=Nn3c(nnc3-c3ccc(-c4nc5ccccc5[nH]4)cc3)SC2)cc1 [compound 101]
- Experimental pIC50 (aromatase): 5.765

Compound: N#Cc1ccc(C(c2[nH]c3ccccc3c2CCNS(=O)(=O)c2ccc(C(F)(F)F)cc2)c2[nH]c3ccccc3c2CCNS(=O)(=O)c2ccc(C(F)(F)F)cc2)cc1 [compound 37]
- Experimental pIC50 (aromatase): 4.815

Compound: OCc1cn(-c2ccccc2Cl)c2ccccc12 [compound 108]
- Experimental pIC50 (aromatase): 7.268

Compound: N#Cc1ccc(-n2cc(CO)c3ccccc32)cc1 [compound 111]
- Experimental pIC50 (aromatase): 7.301

Compound: O[C@@](c1ccc(Br)cc1)(c1cccnc1)c1cc2ccccc2o1 [85S]
- Experimental pIC50 (aromatase): 4.600

Compound: CC(C)n1cc([C@H](c2ccc(F)cc2)n2ccnc2)c2cc(Br)ccc21 [78S]
- Experimental pIC50 (aromatase): 6.495

Compound: O=[N+]([O-])c1ccc(S(=O)(=O)NCCc2c(C(c3ccccc3O)c3[nH]c4ccccc4c3CCNS(=O)(=O)c3ccc([N+](=O)[O-])cc3)[nH]c3ccccc23)cc1 [compound 51]
- Experimental pIC50 (aromatase): 5.553

Compound: O=S(=O)(NCCc1c(C(c2ccc(C(F)(F)F)cc2)c2[nH]c3ccccc3c2CCNS(=O)(=O)c2ccc(C(F)(F)F)cc2)[nH]c2ccccc12)c1ccc(C(F)(F)F)cc1 [compound 45]
- Experimental pIC50 (aromatase): 5.638

Compound: O=[N+]([O-])c1ccc(C(c2[nH]c3ccccc3c2CCNS(=O)(=O)c2ccc(Br)cc2)c2[nH]c3ccccc3c2CCNS(=O)(=O)c2ccc(Br)cc2)cc1 [compound 32]
- Experimental pIC50 (aromatase): 5.569

Compound: Cc1[nH]c2ccccc2c1C=NNc1cc(F)cc(F)c1 [compound 105]
- Experimental pIC50 (aromatase): 4.886

Compound: O=[N+]([O-])c1ccc(S(=O)(=O)NCCc2c(C(c3ccccc3)c3[nH]c4ccccc4c3CCNS(=O)(=O)c3ccc([N+](=O)[O-])cc3)[nH]c3ccccc23)cc1 [compound 30]
- Experimental pIC50 (aromatase): 4.951

Compound: O[C@@](c1cccnc1)(c1cc2ccccc2o1)c1ccc(Cl)cc1Cl [87R]
- Experimental pIC50 (aromatase): 5.658

Compound: OCc1cn(-c2cccc(F)c2)c2ccccc12 [compound 110]
- Experimental pIC50 (aromatase): 7.086

Compound: O=S(=O)(NCCc1c(C(c2ccc(F)cc2)c2[nH]c3ccccc3c2CCNS(=O)(=O)c2ccc(Cl)cc2)[nH]c2ccccc12)c1ccc(Cl)cc1 [compound 41]
- Experimental pIC50 (aromatase): 5.268

Compound: Cc1ccc(S(=O)(=O)NCCc2c(C(c3ccccc3)c3[nH]c4ccccc4c3CCNS(=O)(=O)c3ccc(C)cc3)[nH]c3ccccc23)cc1 [compound 29]
- Experimental pIC50 (aromatase): 4.924

Compound: Cc1[nH]c2ccccc2c1C=NNc1cccc(F)c1 [compound 104]
- Experimental pIC50 (aromatase): 4.939

Compound: CCOc1ccc(-c2nc3ccc(-c4nnc(SCC(=O)N5CCN(Cc6ccccc6)CC5)o4)cc3[nH]2)cc1 [5g, 2-((5-(2-(4-Ethoxyphenyl)-1H-benzo[d]imidazol-6-yl)-1,3,4-oxadiazol-2-yl)thio)-1-(4-benzylpiperazin-1-yl)ethan-1-one]
- IC50 [2]: ≥ 100 µM
- IC50 [3]: ≥ 100 µM
- melting point: 184.4 to 186.8 °C
- IC50 [1]: ≥ 100 µM
- IC50 [4]: ≥ 100 µM
- IC50 [5]: ≥ 100 µM

Compound: Cc1ccc2[nH]c(-c3ccc(-c4nnc5n4N=C(c4ccc(Cl)cc4)CS5)cc3)nc2c1 [compound 79]
- Experimental pIC50 (aromatase): 5.927

Compound: O=S(=O)(NCCc1c(C(c2ccccc2O)c2[nH]c3ccccc3c2CCNS(=O)(=O)c2ccc(Cl)cc2)[nH]c2ccccc12)c1ccc(Cl)cc1 [compound 53]
- Experimental pIC50 (aromatase): 5.377

Compound: CCn1c([C@H](c2cccc(Cl)c2)n2ccnc2)c(C)c2cc(Br)ccc21 [69S]
- Experimental pIC50 (aromatase): 6.027

Compound: CCn1cc([C@@H](c2ccc(F)cc2)n2cncn2)c2cc(Br)ccc21 [123R]
- Experimental pIC50 (aromatase): 5.149

Compound: N#Cc1ccc(C(c2[nH]c3ccccc3c2CCNS(=O)(=O)c2ccc(Cl)cc2)c2[nH]c3ccccc3c2CCNS(=O)(=O)c2ccc(Cl)cc2)cc1 [compound 35]
- Experimental pIC50 (aromatase): 5.260

Compound: O=C1Nc2ccccc2C1(c1[nH]c2ccccc2c1CCNS(=O)(=O)c1cccc([N+](=O)[O-])c1)c1[nH]c2ccccc2c1CCNS(=O)(=O)c1cccc([N+](=O)[O-])c1 [compound 61]
- Experimental pIC50 (aromatase): 4.924

Compound: OCc1cn(-c2ccccc2F)c2ccccc12 [compound 109]
- Experimental pIC50 (aromatase): 6.907

Compound: CCn1cc([C@H](c2ccc(Cl)cc2Cl)n2cccc2)c2cc(Br)ccc21 [118R]
- Experimental pIC50 (aromatase): 6.478

Compound: N#Cc1ccc(C(c2[nH]c3ccccc3c2CCNS(=O)(=O)c2ccc(F)cc2)c2[nH]c3ccccc3c2CCNS(=O)(=O)c2ccc(F)cc2)cc1 [compound 36]
- Experimental pIC50 (aromatase): 5.009

Compound: CCn1cc([C@@H](c2ccc(Cl)cc2Cl)n2cccc2)c2cc(Br)ccc21 [118S]
- Experimental pIC50 (aromatase): 6.478

Compound: Cc1ccc2cc(Cn3ccnc3)n(-c3ccccc3)c2c1 [compound 15]
- Experimental pIC50 (aromatase): 7.670

Compound: CCn1cc(C(c2ccc(F)cc2)n2cncn2)c2cc(Br)ccc21 (stereo not shown) [123S]
- Experimental pIC50 (aromatase): 5.149

Compound: O=S(=O)(NCCc1c(C(c2ccc(F)cc2)c2[nH]c3ccccc3c2CCNS(=O)(=O)c2ccc(Br)cc2)[nH]c2ccccc12)c1ccc(Br)cc1 [compound 40]
- Experimental pIC50 (aromatase): 5.119

Compound: O=S(=O)(Cc1ccccc1)NCCc1c[nH]c2ccccc12 [compound 64]
- Experimental pIC50 (aromatase): 6.125

Compound: CCOc1ccc(-c2nc3ccc(-c4nnc(SCC(=O)N5CCN(Cc6ccc(Cl)cc6)CC5)o4)cc3[nH]2)cc1 [5h, 2-((5-(2-(4-Ethoxyphenyl)-1H-benzo[d]imidazol-6-yl)-1,3,4-oxadiazol-2-yl)thio)-1-(4-(4-chlorobenzyl)piperazin-1-yl)ethan-1-one]
- IC50 [2]: ≥ 100 µM
- IC50 [3]: ≥ 100 µM
- melting point: 177.5 to 178.4 °C
- IC50 [1]: ≥ 100 µM
- IC50 [4]: ≥ 100 µM
- IC50 [5]: ≥ 100 µM

Compound: Fc1ccccc1-n1cc(Cn2ccnc2)c2ccccc21 [compound 114]
- Experimental pIC50 (aromatase): 6.377

Compound: N#Cc1ccc([C@H](c2ccc3[nH]ccc3c2)n2ccnc2)cc1 [5R]
- Experimental pIC50 (aromatase): 7.714

Compound: Cc1ccc2cc(Cn3ccnc3)n(-c3ccc(C#N)cc3)c2c1 [compound 19]
- Experimental pIC50 (aromatase): 7.568
